Reference: PMC8954575, “Norepinephrine and Serotonin Can Modulate the Behavior of the Probiotic Enterococcus faecium NCIMB10415 towards the Host: Is a Putative Surface Sensor Involved?” (Microorganisms, 2022)

Biological target: T1, VicK (WalK) (Enterococcus faecium, UniProt Q3XYG9)
T1 construct: VicK (WalK) from a synthetic codon-optimized gene in pET-15b, N-terminal His-tag, purified from E. coli BL21 with DDM, RED-NHS labelled
T1 sequence (Q3XYG9 1-611): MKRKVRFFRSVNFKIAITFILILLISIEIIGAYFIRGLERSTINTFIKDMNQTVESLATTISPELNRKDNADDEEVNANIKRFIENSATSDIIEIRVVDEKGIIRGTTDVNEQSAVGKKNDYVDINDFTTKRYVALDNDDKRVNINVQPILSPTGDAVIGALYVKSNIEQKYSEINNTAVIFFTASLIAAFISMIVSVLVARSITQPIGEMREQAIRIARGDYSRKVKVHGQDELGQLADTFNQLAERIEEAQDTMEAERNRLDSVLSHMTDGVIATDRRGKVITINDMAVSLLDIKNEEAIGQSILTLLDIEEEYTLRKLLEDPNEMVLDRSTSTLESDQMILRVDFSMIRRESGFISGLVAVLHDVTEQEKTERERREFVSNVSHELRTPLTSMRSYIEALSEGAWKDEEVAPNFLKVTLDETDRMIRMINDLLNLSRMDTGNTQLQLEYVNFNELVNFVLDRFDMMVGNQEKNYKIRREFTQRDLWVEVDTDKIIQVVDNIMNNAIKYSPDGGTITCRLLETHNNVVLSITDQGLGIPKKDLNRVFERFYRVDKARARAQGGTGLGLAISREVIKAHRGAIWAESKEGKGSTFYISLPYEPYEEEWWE
Assay: Micro-Scale Thermophoresis with purified labelled protein
Assay type: binding

## NCCc1c[nH]c2ccc(O)cc12 [5HT, serotonin]
  Kd: 4.5 ± 0.07 mM
